In patent publication US11839216B1, “Quinoline-2,3-fused nine-membered ring scaffold compound, and preparation method and application thereof as effective component in plant fungicide” (QINGDAO AGRICULTURAL UNIVERSITY, priority 2022, dated 2023):

Tests used:
Assay in all cases: antibacterial activity by mycelial growth rate method
Assay type in all cases: cell-based
C. gloeosporioides = conditions: Colletotrichum gloeosporioides; for inhibition at 25 µg/mL: 25 mg/L; for inhibition at 50 µg/mL: 50 mg/L; for inhibition at 100 µg/mL: 100 mg/L
Method: (§1) Five common strains of C. gloeosporioides, V. mali, F. oxysporum, B. cinerea and G. graminis were selected, and the antibacterial activity of the compounds was tested by a mycelial growth rate method (Ann. Appl. Biol., 2008, 152, 369). The above strains for test were provided by Shangdong Biopesticide Engineering Research Center. Firstly, a certain amount of potato dextrose agar (PDA) was weighed and placed in a wide neck flask, distilled water was added to the wide-necked flask, to prepare a culture medium, and the culture medium was placed in an autoclave for sterilization at 120° C. for half an hour. 1 mg of drugs to be tested were weighed and dissolved in 10 mL of acetone to prepare 100 mg/L of agents, a half of agents therein were taken and diluted with the acetone to 10 mL to prepare 50 mg/L of agents, and 25 mg/L, 12.5 mg/L and 6.25 mg/L of agents might be prepared in such way. 5 mL of agents therein were taken and poured into 50 mL of potato dextrose agar for uniform mixing, and then the mixtures were poured into 5 culture media sterilized at high temperature respectively. The five pathogens were inoculated with inoculation loops respectively after cooling, sealed with sealing films and transferred to a proper temperature for observation. When colonies in the control group without the agents reached […], the colonies in the experimental groups were measured by a cross intersection method according to the following formula: Inhibition rate=(colony diameter of the control group−colony diameter of the experimental groups)/colony diameter of the control group×[…]

V. mali = conditions: Cytospora mali; for inhibition at 25 µg/mL: 25 mg/L; for inhibition at 50 µg/mL: 50 mg/L; for inhibition at 100 µg/mL: 100 mg/L
Method: as §1

B. cinerea = conditions: Botrytis cinerea; for inhibition at 25 µg/mL: 25 mg/L; for inhibition at 50 µg/mL: 50 mg/L; for inhibition at 100 µg/mL: 100 mg/L
Method: as §1

F. oxysporum = conditions: Fusarium oxysporum; for inhibition at 25 µg/mL: 25 mg/L; for inhibition at 50 µg/mL: 50 mg/L; for inhibition at 100 µg/mL: 100 mg/L
Method: as §1

G. graminis = conditions: Gaeumannomyces graminis; for inhibition at 25 µg/mL: 25 mg/L; for inhibition at 50 µg/mL: 50 mg/L; for inhibition at 100 µg/mL: 100 mg/L
Method: as §1

| Structure (SMILES) | inhibition at 25 µg/mL (C. gloeosporioides) [%] | inhibition at 50 µg/mL (C. gloeosporioides) [%] | inhibition at 100 µg/mL (C. gloeosporioides) [%] | inhibition at 25 µg/mL (V. mali) [%] | inhibition at 50 µg/mL (V. mali) [%] | inhibition at 100 µg/mL (V. mali) [%] | inhibition at 25 µg/mL (B. cinerea) [%] | inhibition at 50 µg/mL (B. cinerea) [%] | inhibition at 100 µg/mL (B. cinerea) [%] | inhibition at 25 µg/mL (F. oxysporum) [%] | inhibition at 50 µg/mL (F. oxysporum) [%] | inhibition at 100 µg/mL (F. oxysporum) [%] | inhibition at 25 µg/mL (G. graminis) [%] | inhibition at 50 µg/mL (G. graminis) [%] | inhibition at 100 µg/mL (G. graminis) [%] |
| --- | --- | --- | --- | --- | --- | --- | --- | --- | --- | --- | --- | --- | --- | --- | --- |
| c1ccc(CN2Cc3cc4ccccc4nc3CC3CCCN3c3ccccc32)cc1 (stereo not drawn) [Compound 1] | 100 | 100 | 100 | ≤ 100 | 100 | 100 | ≤ 100 | 100 | 100 | 49.3 | 100 | 100 | 36.9 | 54.1 | 68.9 |
| Fc1ccc(CN2Cc3cc4ccccc4nc3CC3CCCN3c3ccccc32)cc1 (stereo not drawn) [Compound 2] | 92.4 | 100 | 100 | ≤ 100 | 100 | 100 | ≤ 100 | 100 | 100 | 100 | 100 | 100 | 100 | 100 | 100 |
| Cc1ccc(CN2Cc3cc4ccccc4nc3CC3CCCN3c3ccccc32)cc1 (stereo not drawn) [Compound 3] | 100 | 100 | 100 | ≤ 100 | 100 | 100 | ≤ 100 | 100 | 100 | 100 | 100 | 100 | 58.2 | 62.1 | 100 |
| COc1cccc(CN2Cc3cc4ccccc4nc3CC3CCCN3c3ccccc32)c1 (stereo not drawn) [Compound 4] | 100 | 100 | 100 | ≤ 100 | 100 | 100 | ≤ 100 | 100 | 100 | 100 | 100 | 100 | 61.2 | 66.5 | 100 |
| Cc1ccc(CN2Cc3cc4ccccc4nc3CC3CCCN3c3cc(Cl)ccc32)cc1 (stereo not drawn) [Compound 5] | 88.1 | 100 | 100 | ≤ 100 | 100 | 100 | ≤ 100 | 100 | 100 | 100 | 100 | 100 | 35.9 | 51.9 | 75.1 |
| Cc1ccc(CN2Cc3cc4cc(C(F)(F)F)ccc4nc3CC3CCCN3c3ccccc32)cc1 (stereo not drawn) [Compound 6] | 74.6 | 82.1 | 100 | ≤ 100 | 100 | 100 | ≤ 100 | 100 | 100 | 86.5 | 100 | 100 | 56.3 | 100 | 100 |
